Measurements reported in US20260174875A1 (Novo Nordisk A/S, priority 2023, published 2026).
pEC50: −log10 of the molar value. Read-outs that look alike come from different tables or passages of the source. Numbered stars: 1 amine (or outer) side, 2 acyl side, 3 side chain; on linkers, the order of the positions; unused ones are H or OH. Square brackets hold non-standard residues; d marks the D form. Side chains are listed from the residue outwards. * marks the point of attachment. C20 diacid = O=C(O)CCCCCCCCCCCCCCCCCCC(=O)*; C18 diacid = O=C(O)CCCCCCCCCCCCCCCCC(=O)*; γGlu = O=C(O)[C@H](CCC(=O)[*:2])N[*:1]; AEEA = NCCOCCOCC(=O)O; Aib = CC(C)(N)C(=O)O

What was measured:
[1] = biological target: T1, human GIP receptor (hGIPR) (Homo sapiens, UniProt P48546); test: GIP receptor assay, method A (CRE-luciferase reporter, BHK cells); format: cell-based
T1 construct: expressed in transfected cells
T1 sequence (P48546 22-466): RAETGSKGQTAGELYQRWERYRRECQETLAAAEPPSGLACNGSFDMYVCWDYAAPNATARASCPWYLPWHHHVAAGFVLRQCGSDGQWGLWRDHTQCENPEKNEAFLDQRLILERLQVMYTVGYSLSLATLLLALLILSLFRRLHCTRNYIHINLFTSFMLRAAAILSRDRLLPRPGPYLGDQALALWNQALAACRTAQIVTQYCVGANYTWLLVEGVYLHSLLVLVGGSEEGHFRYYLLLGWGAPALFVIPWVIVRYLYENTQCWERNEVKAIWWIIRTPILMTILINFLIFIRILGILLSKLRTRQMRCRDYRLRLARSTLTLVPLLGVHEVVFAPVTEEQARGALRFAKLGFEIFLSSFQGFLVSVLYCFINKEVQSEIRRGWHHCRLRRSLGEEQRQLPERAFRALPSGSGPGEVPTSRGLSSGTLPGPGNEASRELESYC
In short: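 BHK cells co-expressing hGIPR and a CRE-luciferase reporter were stimulated for 3 h at 37 °C with a 7-point, 10-fold compound titration in duplicate. Buffer was DMEM, 10 mM HEPES, 1% ovalbumin, 0.1% Pluronic F-68, without HSA or with 1% (w/v) HSA. EC50 [pM] came from four-parameter logistic fits of luminescence.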

[2] = biological target: T2, human GLP-1 receptor (hGLP-1R) (Homo sapiens, UniProt P43220); test: GLP-1 receptor assay, method A (CRE-luciferase reporter, BHK cells); format: cell-based
T2 construct: expressed in transfected cells
T2 sequence (P43220 24-463): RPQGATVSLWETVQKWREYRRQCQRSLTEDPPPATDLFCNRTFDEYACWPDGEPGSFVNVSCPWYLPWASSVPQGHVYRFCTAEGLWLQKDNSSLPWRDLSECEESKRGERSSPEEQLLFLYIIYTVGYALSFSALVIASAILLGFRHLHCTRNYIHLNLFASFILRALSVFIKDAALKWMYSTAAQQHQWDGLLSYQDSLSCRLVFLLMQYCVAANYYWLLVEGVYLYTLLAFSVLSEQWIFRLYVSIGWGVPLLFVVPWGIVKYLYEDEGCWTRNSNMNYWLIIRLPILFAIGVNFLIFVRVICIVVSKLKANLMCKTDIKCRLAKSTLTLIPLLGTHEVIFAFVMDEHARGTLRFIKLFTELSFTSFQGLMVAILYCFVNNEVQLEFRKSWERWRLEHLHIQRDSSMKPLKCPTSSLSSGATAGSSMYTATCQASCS
In short: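 Run in parallel with no HSA and with 1% (w/v) HSA to gauge albumin effects; assay buffer also held 1% ovalbumin, 10 mM HEPES and 0.1% Pluronic F-68. Thawed hGLP-1R BHK CRE-Luc cells incubated 3 h at 37 °C, then luciferase luminescence measured (steadylite Plus).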

[3] = hGIPR Potency, 1% HSA, EC50, method A, in the presence of 1% HSA
[4] = method A, absence of HSA, read-out: hGIPR Potency, no HSA, EC50
[5] = hGLP-1R Potency, 1% HSA, EC50, method A, in the presence of 1% HSA
[6] = method A, absence of HSA, read-out: hGLP-1R Potency, no HSA, EC50

| Substance | pEC50 [1, 3] | pEC50 [1, 4] | pEC50 [2, 5] | pEC50 [2, 6] |
| --- | --- | --- | --- | --- |
| Y[Aib]EGTFTSDYSILLEEQAAREFIEWLLAGGPSSGAGQAPGQAPLASHLSTAQTQRLSAELHK([AEEA-AEEA-γGlu-C18 diacid])LATLPRTETGSGSP-NH2 [compound 58] | 11.12 | 11.73 | 10.59 | 10.90 |
| Y[Aib]EGTFTSDYSILLEEQAAREFIEWLLAGGPSSGALQAPGQAPLASHLSTAQTQRLSAELHK([AEEA-AEEA-γGlu-C20 diacid])LATLPRTETGSGSP-NH2 [Compound 99] | 11.13 | 11.68 | 10.44 | 10.78 |
| Y[Aib]EGTFTSDYSILLEEQAAREFIEWLLAGGPSSGAPPPSGGGEASHLSTAQTQRLSAK([AEEA-AEEA-γGlu-C18 diacid])LHRLATLPRTETGSGSP-NH2 [Compound 109] | 10.76 | 11.13 | 10.02 | 10.16 |
| Y[Aib]EGTFTSDYSILLEEQAAREFIEWLLAGGPSSGAPPPSGGGEASHLSTAQTQRLSAK([AEEA-AEEA-γGlu-C20 diacid])LHRLATLPRTETGSGSP-NH2 [Compound 110] | 10.53 | 11.10 | 9.77 | 9.97 |
| Y[Aib]EGTFTSDYSILLEEQAAREFIEWLLAGGPSSGEASHLSTAQTQRLSAELHK([AEEA-AEEA-γGlu-C18 diacid])LATLPRTETGSGSP-NH2 [Compound 50] | 10.82 | 11.63 | 10.18 | 10.79 |
| Y[Aib]EGTFTSDYSILLEEQAAREFIEWLLAGGPSSGEASHLSTAQTQRLSAELHRLK([AEEA-AEEA-γGlu-C18 diacid])TLPRTETGSGSP-NH2 [Compound 80] | 10.69 | 11.40 | 9.95 | 10.61 |
| Y[Aib]EGTFTSDYSILLEEQAAREFIEWLLAGGPSSGEASHLSTAQTQRLSAK([AEEA-AEEA-γGlu-C18 diacid])LHRLATLPRTETGSGSP-NH2 [Compound 79] | 10.61 | 11.33 | 9.77 | 10.41 |
